{"source": "patent US20110104159A1", "about": "“COMPOSITIONS AND METHODS FOR TREATING, CONTROLLING, REDUCING, AMELIORATING, OR PREVENTING ALLERGY” (priority 2006, published 2011)", "key": {"[1]": {"system": "rabbit paracentesis model", "assay": "Pupillary diameter measurement, rabbit paracentesis model", "type": "in vivo", "settings": "0.5% topical, individual eye", "method": "(§1) Each rabbit was placed in a restraint device and tagged with the alphanumeric code. The formulations were instilled (50 μl) into the conjunctival sac of both eyes 180, 120, 90 and 30 min before the first paracentesis; then 15, 30, 90 min after the first paracentesis. To perform the first paracentesis the animals were anaesthetized by intravenous injection of 5 mg/kg Zoletil® (Virbac; 2.5 mg/kg tiletamine HCl and 2.5 mg/kg zolazepam HCl) and one drop of local anesthetic (Novesina®, Novartis) was administered to the eye. Anterior chamber paracentesis was performed with a 26 G needle attached to a tuberculin syringe; the needle was introduced into the anterior chamber through the cornea, taking care not to damage the tissues. Two hours after the first paracentesis, the animals were sacrificed with 0.4 ml Tanax® (Intervet International B.V.) and the second paracentesis was performed. About 100 μl of aqueous humor were removed at the second paracentesis. Aqueous humor was immediately split in four aliquots and stored at −80° C. until analysis. Then both eyes were enucleated and the iris-ciliary body was carefully excised, placed in polypropylene tubes, and stored at −80° C. until analysis.\nThe pupillary diameter of both eyes was measured with a Castroviejo caliper 180 min and 5 min before the first paracentesis and 5 min before the second paracentesis."}, "[2]": {"system": "rabbit paracentesis model", "assay": "Clinical evaluation by slit lamp (clinical score), rabbit paracentesis model", "type": "in vivo", "design": "key to Clinical Score −180 min / Clinical Score −5 min / Clinical Score +115 min: 0: normal; 1: discrete dilatation of iris and conjunctival vessels; 2: moderate dilatation of iris and conjunctival vessels; 3: intense iridal hyperemia with flare in the anterior chamber; 4: intense iridal hyperemia with flare in the anterior chamber and presence of fibrinous exudates", "settings": "0.5% topical"}, "PGE2": {"system": "PGE2", "assay": "Prostaglandin E2 (PGE2) measurement in aqueous humor", "type": "in vivo, Rabbit", "settings": "0.5% topical", "method": "as §1\nFor the quantitative determination of PGE2 in the aqueous humor we used the PGE2 Immunoassay kit (R&D Systems; Cat. No. KGE004; Lot. No. 240010). Eleven microliters or 16 μl of aqueous humor were diluted to 110 μl or 160 μl with the calibrator diluent solution provided with the kit. One hundred microliters of samples and of standards were load into a 96-well plate and recorded in a plate layout. Samples were treated following the assay procedure described in the kit. A microplate reader (GDV, Italy; model DV 990 B/V6) set at 450 nm (wavelength correction at 540 nm) was used for making the calibration and analyzing the samples."}, "[3]": {"system": "protein concentration in the aqueous humor", "assay": "Protein measurement in aqueous humor", "type": "in vivo, Rabbit", "settings": "0.5% topical", "method": "as §1\nFor protein concentration determination in the aqueous humor we used the Protein Quantification Kit (Fluka; Cat. No. 77371; Lot. No. 1303129). Five microliters of aqueous humor were diluted to 100 μl with water. Twenty microliters of samples and of standards were load into a 96-well plate and recorded in a plate layout. Samples were treated following the assay procedure described in the kit. A microplate reader (GDV, Italy; model DV 990 B/V6) set at 670 nm was used for making the calibration and analyzing the samples."}, "leukocytes (PMN)": {"system": "leukocytes (PMN)", "assay": "Leukocytes (PMN) measurement in aqueous humor", "type": "in vivo, Rabbit", "settings": "0.5% topical", "method": "as §1\nFor the determination of the number of leukocytes we used a haemocytometer (Improved Neubauer Chamber; Brigth-line, Hausser Scientific) and a Polyvar 2 microscope (Reichert-Jung)."}, "MPO": {"system": "MPO", "assay": "Myeloperoxidase (MPO) activity in iris-ciliary body", "type": "in vivo, Rabbit", "method": "2.3.2.1 Phosphate Buffer (50 mM; pH=6)\n3.9 g of NaH2PO4 2H2O were dissolved in a volumetric flask to 500 ml with water. The pH was adjusted to pH=6 with 3N NaOH.\n0.5 g of hexa-decyl-trimethyl-ammonium bromide was dissolved in 100 ml phosphate buffer.\nThe solution was prepared freshly. Ten microliters of H2O2 (30 wt. %) were diluted to 1 ml with water (solution A). 7.5 mg o-dianisidine 2HCl were dissolved in 45 ml of phosphate buffer and 75 μl of solution A were added.\nas §1\nThe activity of MPO was measured as previously described by Williams et al. The iris-ciliary bodies were carefully dried, weighed and immersed in 1 ml of hexa-decyl-trimethyl-ammonium bromide solution. Then, the samples were sonicated for 10 sec on ice by a ultrasound homogenizer (HD 2070, Bandelin electronic), freeze-thawed three times, sonicated for 10 sec and centrifuged at 14,000 g for 10 min to remove cellular debris. An aliquot of the supernatant (40-200 μl) was diluted to 3 ml with the o-dianisidine 2HCl/H2O2 solution. The change in absorbance at 460 nm was continuously monitored for 5 min by a spectrophotometer (UV/Vis Spectrometer Lambda EZ 201; Perkin Elmer). The slope of the line (Δ/min) was determined for each sample and used to calculate the number of units of MPO in the tissue as follows:\nwhere ε=11.3 mM^−1. Values were expressed as units of MPO/g of tissue."}, "EoL-1 cells": {"system": "EoL-1 cells", "assay": "EoL-1 cell apoptosis (annexin V/PI flow cytometry)", "type": "cell-based, human", "settings": "10 μM co-incubated", "method": "EoL-1 cells were grown in RPMI-1640+L-glutamine medium (containing 10% FBS) and kept at 37° C. in a 5% CO2 humidified atmosphere. Before each experiment, the cells were stabilized in serum-depleted media (0.1% FBS) for 24 h before treatments."}, "[4]": {"system": "peripheral human blood eosinophils", "assay": "Spontaneous eosinophil apoptosis (annexin V/PI flow cytometry)", "settings": "10 μM co-incubated", "procedure": "To assess glucocorticoid-induced apoptosis, cells were double-stained with annexin V-Fluos and propidium iodide (PI). Annexin V-Fluos was used according to the manufacturer's instructions.\nThe suspension was incubated at room temperature for 10 min and analyzed in the BD FACS Canto II flow cytometry system (Becton, Dickinson and Company, New Jersey, USA). Eosinophils and EoL-1 cells were gated on the basis of their forward and side light scatter, with cell debris excluded from analysis. Apoptotic cells were defined as annexin V^+/PI^− cells. A two-way dot plot was prepared to verify the percentage of apoptotic cells. Annexin V^−/PI^− cells were used as control and annexin V^+/PI^+ cells were considered necrotic.\nAll data are expressed as mean±S.E.M. for the number of experiments indicated. Statistical comparisons were made by ANOVA and post-hoc Newman-Keuls test with differences of P<0.05 considered significant."}}, "note": "Values joined by “and” are separate entries in the source; they are usually repeats but may differ in a detail not shown here. Identical values can stand only once.", "data": [{"smiles": "CCOC(=O)O[C@]1(C(=O)OCCl)CC[C@H]2[C@@H]3CCC4=CC(=O)C=C[C@]4(C)[C@H]3[C@@H](O)C[C@@]21C", "note": "[LE, loteprednol etabonate, reference compound]", "values": [{"measurement": "Pupillary diameter T2: −5 min", "setting": "[1]; 5 min before first paracentesis", "value": "6.0 mm (3×) and 6.5 mm (5×)"}, {"measurement": "Pupillary diameter T3: +115 min", "setting": "[1]; 5 min before second paracentesis", "value": "4.5 mm and 5.0 mm (2×) and 5.5 mm (2×) and 6.0 mm (3×)"}, {"measurement": "Pupillary diameter Δ(T3 − T1)", "setting": "[1]; +115 min minus −180 min", "value": "−1.5 mm (2×) and −1.0 mm (3×) and 0.0 mm and −0.5 mm (2×)"}, {"measurement": "Pupillary diameter T1: −180 min", "setting": "[1]; basal", "value": "6.0 mm (3×) and 6.5 mm (5×)"}, {"measurement": "Clinical Score −5 min", "setting": "[2]; 5 min before first paracentesis, individual eye, scale 0-4", "value": 0}, {"measurement": "Clinical Score +115 min", "setting": "[2]; 5 min before second paracentesis, individual eye, scale 0-4", "value": "2 (2×) and 1 (6×)"}, {"measurement": "Percentage of eyes with clinical score 1", "setting": "[2]; +115 min, 8 eyes", "value": 75, "unit": "%"}, {"measurement": "Percentage of eyes with clinical score 2", "setting": "[2]; +115 min, 8 eyes", "value": 25, "unit": "%"}, {"measurement": "Clinical Score −180 min", "setting": "[2]; basal, individual eye, scale 0-4", "value": 0}, {"measurement": "Clinical score, statistical comparison with CTR", "setting": "[2]; p<0.05", "value": "significant difference"}, {"measurement": "Percentage of eyes with clinical score 0", "setting": "[2]; −5 min, 8 eyes", "value": 100, "unit": "%"}, {"measurement": "Percentage of eyes with clinical score 0", "setting": "[2]; −180 min, 8 eyes", "value": 100, "unit": "%"}, {"measurement": "PGE2 in aqueous humor at the second paracentesis, Mean", "setting": "PGE2; group mean", "value": 0.672, "unit": "ng/mL"}, {"measurement": "PGE2 in aqueous humor at the second paracentesis", "setting": "PGE2; individual eye sample", "value": "^2N/D and 0.23 ng/ml and 0.68 ng/ml and 1.10 ng/ml"}, {"measurement": "PGE2 in aqueous humor, statistical comparison with CTR", "setting": "PGE2; p<0.05", "value": "statistically significant versus CTR"}, {"measurement": "Protein in aqueous humor at the second paracentesis, Mean", "setting": "[3]; group mean", "value": 33.905, "unit": "mg/mL"}, {"measurement": "Protein in aqueous humor at the second paracentesis", "setting": "[3]; individual eye sample", "value": "36.14 mg/mL and 39.10 mg/mL and 34.69 mg/mL and 26.10 mg/mL and 26.30 mg/mL and 28.16 mg/mL and 40.90 mg/mL and 39.85 mg/mL"}, {"measurement": "PMN in aqueous humor at the second paracentesis, Mean", "setting": "leukocytes (PMN); group mean", "value": 28.333, "unit": "number/μl"}, {"measurement": "PMN in aqueous humor at the second paracentesis", "setting": "leukocytes (PMN); individual eye sample", "value": "40 number/μl (2×) and 20 number/μl (3×) and 30 number/μl"}, {"measurement": "MPO activity in iris-ciliary body, statistical comparison with CTR", "setting": "MPO; 0.5% topical, p<0.001", "value": "statistical significance"}, {"measurement": "Mean MPO Unit/g (MPO activity in iris-ciliary body samples)", "setting": "MPO; 0.5% treatment, group mean, after the second paracentesis", "value": 0.661, "unit": "Unit/g"}, {"measurement": "MPO Unit/g (raw data of MPO activity in iris-ciliary body samples)", "setting": "MPO; 0.5% treatment, individual eyes (DX/SX) of rabbits, samples collected after the second paracentesis", "value": "0.30 Unit/g and 0.51 Unit/g and 0.81 Unit/g and 0.60 Unit/g and 0.73 Unit/g and 1.01 Unit/g"}]}, {"smiles": "CC#C[C@]1(O)CC[C@H]2[C@@H]3CCC4=CC(=O)CCC4=C3[C@@H](c3ccc(N(C)C)cc3)C[C@@]21C", "note": "[mifepristone, reference compound]", "values": [{"measurement": "Effect on apoptosis induced by 5000 nM BOL-303242-X or dexamethasone in EoL-1 cells", "setting": "EoL-1 cells", "value": "prevented apoptosis"}, {"measurement": "Effect on apoptosis induced by 5000 nM BOL-303242-X or dexamethasone in human eosinophils", "setting": "[4]", "value": "prevented apoptosis"}]}]}
